Experimental data: patent US4596873A, “1,4,5,6,7,8-Hexahydro-2-alkyl-4-aryl-5-oxo-1,7-naphthyridine-3-carboxyl ic acid aromatic esters and pharmaceutically acceptable acid addition salts thereof useful as antihypertensive agents” (American Home Products Corporation, priority 1985, dated 1986)

Columns and labels:
[1] = test system: arterial actin-myosin interactions; test: inhibition of superprecipitation (antagonism of arterial actin-myosin interaction); type: biochemical; conditions: six minute time-point, mean±SEM
Method: (§1) The data reported herein was obtained at a six minute time-point rather than the 1.5, 5 and 12 minute time points indicated in the superprecipitation assay of the Silver et al. paper.
(§2) The following examples illustrate the preparation of a representative number of compounds of this invention. After each example, and Ca^+2 antagonist activity of the compound is presented in terms of percent relaxation of aortic tissue (P.R.) at 10^-5 M concentration. […] Inhibition of superprecipitation (Antag. of Actin-Myosin interaction) is expressed as percent inhibition (mean±standard error of the mean for at least 3 separate experiments) at a compound concentration. In the same manner, inhibition of myosin light chain phosphorylation (Antag. of MLCP) is expressed as a percent inhibition at a compound concentration. Similarly, the antihypertensive activity is reported in terms of millimeters mercury (mmHg) systolic blood pressure (B.P.) reduction at the stated time post 50 mg/kg oral dosing or other dosing as indicated.

[2] = test system: spontaneously hypertensive rats; test: decrease in systolic blood pressure of spontaneously hypertensive rats; type: in vivo, rat
[3] = test system: Ca^+2 -calmodulin dependent myosin light chain phosphorylation; test: inhibition of Ca^+2-calmodulin dependent myosin light chain phosphorylation (MLCP); type: biochemical
Method: as §1, §2

| Structure (SMILES) | inhibition of superprecipitation (Antag. of Actin-Myosin) ([1]; 100 μM) [%] | systolic blood pressure (B.P.) reduction ([2]; 25 mg/kg, 4 hours) [mmHg] | inhibition of myosin light chain phosphorylation (Antag. of MLCP) ([3]; 100 μM) [%] | systolic blood pressure (B.P.) reduction ([2]; 25 mg/kg, 1.5 hours) [mmHg] | inhibition of superprecipitation (Antag. of Actin-Myosin) ([1]; 25 μM) [%] | systolic blood pressure (B.P.) reduction ([2]; 50 mg/kg oral, 1.5 hours) [mmHg] | systolic blood pressure (B.P.) reduction ([2]; 50 mg/kg oral, 4 hours) [mmHg] | inhibition of myosin light chain phosphorylation (Antag. of MLCP) ([3]; 25 μM) [%] | inhibition of superprecipitation (Antag. of Actin-Myosin) ([1]; 50 μM) [%] | systolic blood pressure (B.P.) reduction ([2]; 5 mg/kg, 1.5 hours) [mmHg] | systolic blood pressure (B.P.) reduction ([2]; 5 mg/kg, 4 hours) [mmHg] | systolic blood pressure (B.P.) reduction ([2]; 10 mg/kg, 1.5 hours) [mmHg] | systolic blood pressure (B.P.) reduction ([2]; 10 mg/kg, 4 hours) [mmHg] | inhibition of myosin light chain phosphorylation (Antag. of MLCP) ([3]; 50 μM) [%] |
| --- | --- | --- | --- | --- | --- | --- | --- | --- | --- | --- | --- | --- | --- | --- |
| CC1=C(C(=O)OCCOc2ccccc2)C(c2c(F)ccc(F)c2F)C2=C(CNCC2=O)N1 (stereo not shown) [Example 16, 1,4,5,6,7,8-Hexahydro-2-methyl-5-oxo-4-(2,3,6-trifluorophenyl)-1,7-naphthyrdine-3-carboxylic acid 2-phenoxyethyl ester] | 34 | -18 | 28 |  |  |  |  |  |  |  |  |  |  |  |
| CC1=C(C(=O)OCCCCOc2ccccc2)C(c2c(F)c(F)c(F)c(F)c2F)C2=C(CNCC2=O)N1 (stereo not shown) [Example 21, 1,4,5,6,7,8-Hexahydro-2-methyl-5-oxo-4-(pentafluorophenyl)-1,7-naphthyridine-3-carboxylic acid 4-phenoxybutyl ester] | 80 | -49 | 77 | 0 |  |  |  |  |  |  |  |  |  |  |
| CC1=C(C(=O)OC(C)COc2ccccc2)C(c2c(F)c(F)c(F)c(F)c2F)C2=C(CNCC2=O)N1 (stereo not shown) [Example 13, 1,4,5,6,7,8-Hexahydro-2-methyl-5-oxo-4-(pentafluorophenyl)-1,7-naphthyridine-3-carboxylic acid 1-methyl-2-phenoxyethyl ester] | 78 |  | 70 |  | 61 | -35 | -60 | 58 |  |  |  |  |  |  |
| CC1=C(C(=O)OCCOc2ccccc2)C(c2c(F)ccc(Cl)c2Cl)C2=C(CNCC2=O)N1 (stereo not shown) [Example 24, 4-(2,3-Dichloro-6-fluorophenyl)-1,4,5,6,7,8-hexahydro-2-methyl-5-oxo-1,7-naphthyridine-3-carboxylic acid 2-phenoxyethyl ester] | 72±1 | -70 | 68±1 | -50 | 9±2 |  |  | 8±2 | 54±3 | -17 | -26 | -6 | -26 | 50±2 |
| CC1=C(C(=O)OCCOc2ccccc2)C(c2c(F)c(F)c(F)c(F)c2F)C2=C(CNCC2=O)N1 (single isomer, unassigned; (-)) [Example 3, (-)-1,4,5,6,7,8-Hexahydro-2-methyl-5-oxo-4-(pentafluorophenyl)-1,7-naphthyridine-3-carboxylic acid 2-phenoxyethyl ester] | 76 |  | 70 |  |  |  |  |  | 65 |  |  |  |  | 57 |
| COC(COC(=O)C1=C(C)NC2=C(C(=O)CNC2)C1c1cccc(Cl)c1)c1ccccc1 (stereo not shown) [Example 11, 4-(3-Chlorophenyl)-1,4,5,6,7,8-hexahydro-2-methyl-5-oxo-1,7 naphthyridine-3-carboxylic acid 2-methoxy-2-phenylethyl ester] | 53 |  | 48 |  |  | -29 | -38 |  |  |  |  |  |  |  |
| CO[C@@H](COC(=O)C1=C(C)NC2=C(C(=O)CNC2)C1c1c(F)c(F)c(F)c(F)c1F)c1ccccc1 (stereo partly drawn) [Example 6, 1,4,5,6,7,8-Hexahydro-2-methyl-5-oxo-4-(pentafluorophenyl)-1,7-naphthyridine-3-carboxylic acid (R)-2-methoxy-2-phenylethyl ester] | 74 |  | 70 |  |  |  |  |  | 64 |  |  | -56 | -49 | 56 |
| COC(COC(=O)C1=C(C)NC2=C(C(=O)CNC2)C1c1c(F)cccc1Cl)c1ccccc1 (stereo not shown) [Example 9, 4-(2-Chloro-6-fluorophenyl)-1,4,5,6,7,8-hexahydro-2-methyl-5-oxo-1,7-naphthyridine-3-carboxylic acid 2-methoxy-2-phenylethyl ester] | 40 |  | 44 |  |  | -37 | -14 |  |  |  |  |  |  |  |
| CC1=C(C(=O)OCCOc2ccccc2)C(c2ccccc2C)C2=C(CNCC2=O)N1 (stereo not shown) [Example 15, 1,4,5,6,7,8-Hexahydro-2-methyl-4-(2-methylphenyl)-5-oxo-1,7-naphthyridine-3-carboxylic acid 2-phenoxyethyl ester] | 66±5 | -39 | 61±5 | -29 |  |  |  |  |  |  |  |  |  |  |
| COC(COC(=O)C1=C(C)NC2=C(C(=O)CNC2)C1c1ccccc1C(F)(F)F)c1ccccc1 (stereo not shown) [Example 12, 1,4,5,6,7,8-Hexahydro-2-methyl-5-oxo-4-[2-(trifluoromethyl)phenyl]-1,7-naphthyridine-3-carboxylic acid 2-methoxy-2-phenylethyl ester] | 30 | -56 | 24 | -56 |  |  |  |  |  |  |  |  |  |  |
| CO[C@H](COC(=O)C1=C(C)NC2=C(C(=O)CNC2)C1c1c(F)c(F)c(F)c(F)c1F)c1ccccc1 (single isomer, unassigned) [Example 8 Diastereomer A, 1,4,5,6,7,8-Hexahydro-2-methyl-5-oxo-4(R or S-pentafluorophenyl)-1,7-naphthyridine-3-carboxylic acid (S)-2-methoxy-2-phenylethyl esters] | 69 |  | 63 |  |  |  |  |  | 28 |  |  |  |  | 28 |
| CC1=C(C(=O)OCCOc2ccccc2)C(c2c(F)c(F)c(F)c(F)c2F)C2=C(CNCC2=O)N1 (racemic) [Example 2, 1,4,5,6,7,8-Hexahydro-2-methyl-5-oxo-4-(pentafluorophenyl)-1,7-naphthyridine-3-carboxylic acid 2-phenoxyethyl ester] | 72±2 |  | 69±3 |  | 28±2 |  |  | 24±3 | 58±4 |  |  |  | -51 | 54±4 |
| CC1=C(C(=O)OCCOc2ccccc2)C(c2c(F)ccc(C)c2Cl)C2=C(CNCC2=O)N1 (stereo not shown) [Example 23, 4-(2-chloro-6-fluoro-3-methylphenyl)-1,4,5,6,7,8-hexahydro-2-methyl-5-oxo-1,7-naphthyridine-3-carboxylic acid 2-phenoxyethyl ester] | 62 | -31 | 56 | -22 |  |  |  |  | 23 |  |  |  |  | 18 |
| CC1=C(C(=O)OCC2COc3ccccc3O2)C(c2c(F)c(F)c(F)c(F)c2F)C2=C(CNCC2=O)N1 (stereo not shown) [Example 14, 1,4,5,6,7,8-Hexahydro-2-methyl-5-oxo-4-(pentafluorophenyl)-1,7-naphthyridine-3-carboxylic acid 2,3-dihydro-1,4-benzodioxin-2-ylmethyl ester] | 80 |  | 76 |  | 65 | -46 | -42 | 59 |  |  |  |  |  |  |
| CC1=C(C(=O)OCCOc2ccccc2)C(c2cccc(Cl)c2Cl)C2=C(CNCC2=O)N1.Cl (stereo not shown) [Example 19, 4-(2,3-Dichlorophenyl)-1,4,5,6,7,8-hexahydro-2-methyl-5-oxo-1,7-naphthyridine-3-carboxylic acid 2-phenoxyethyl ester, hydrochloride] | 71 |  | 69 |  |  | -50 | -73 |  |  |  |  |  |  |  |
| CO[C@H](COC(=O)C1=C(C)NC2=C(C(=O)CNC2)C1c1c(F)c(F)c(F)c(F)c1F)c1ccccc1 (single isomer, unassigned) [Example 8 Diastereomer B, 1,4,5,6,7,8-Hexahydro-2-methyl-5-oxo-4(R or S-pentafluorophenyl)-1,7-naphthyridine-3-carboxylic acid (S)-2-methoxy-2-phenylethyl esters] | 64 |  | 62 |  |  |  |  |  | 30 |  |  |  |  | 34 |
